# Results as given in US6130250A, “Veterinary use of a pleuromutilin derivative” (priority 1996, dated 2000).
# Entries after “also recorded” stand apart in the source; their conditions may differ. Counter-ions that a name gives are not always drawn.
# How the values were obtained:
# M. hyopneumoniae [1] = assay: MIC against M. hyopneumoniae strains isolated from challenge material; assay type: cell-based, Mycoplasma hyopneumoniae; details: Mesomycoplasma hyopneumoniae
# M. hyopneumoniae [2] = assay: Development of resistance (habituation study), MIC before and after passages; assay type: cell-based, Mycoplasma hyopneumoniae; details: for Resistance increase: up to P10/P11
# Protocol: Mycoplasma hyopneumoniae reference strain NCTC 10110 (obtained from the National Collection of Type Cultures, London, UK) and a recent field isolate (MEVT G23), are grown aerobically at 36° C. in Mycoplasma glucose broth containing phenol red until an acid colour change occurs. After addition of sterile glycerol (5% v/v) the cultures are dispensed in 1 ml aliquots and frozen at -70° C. These cultures are used to initiate further broth cultures which are titrated to obtain the number of colour changing units (ccu) in microtitre plates after incubation (36° C.). Replication allows challenge of antibiotic dilutions with predetermined numbers of ccu in minimal inhibitory concentration (MIC) tests and in the primary passage in habituation studies.
# A commercially available medium (Mycopiasma Experience Ltd.) containing glucose and phenol red (MEGB) is used at pH 7.6.
# Stock test compound solutions are prepared at 1000 μg/ml in deionized water. After vortexing, the solutions are sterilized by filtration through 0.2μ pore size membrane filters (Sartorius Minisart, N). For use in the MIC tests the stock solutions are diluted in mycoplasma broth to double the final concentrations required. In habituation studies the stock solutions are dispensed in 1 ml aliquots and frozen at -20° C. These are thawed and used at 5 day-7 day intervals to prepare ranges of concentrations of drug (doubling series) in MEGB, in 1.9 ml aliquots, covering the MICs against both strains of M. hyopneumoniae. Oxytetracycline hydrochloride is prepared fresh on each occasion. The dilution ranges are gradually changed from passage to passage to allow for the development of resistance in the mycoplasmas.
# MIC tests are carried out by the method of Tanner & Wu, Avian Diseases 36 (1992) 714-717 before carrying out the habituation study (below) and after the 10th passages 0.1 ml aliquots of the compound dilution are mixed with 0.1 ml aliquots of the challenge inocula, containing between 10^3 and 10^5 colour changing units (ccu) per ml, in microtitre wells. Each microtitre plate contains uninoculated medium, medium at pH 6.8 (end-point-control) and drug-free inoculated challenge controls. All plates are sealed and incubated aerobically at 36° C. MICs are recorded when the colour change in the challenge control wells match the pH 6.8 control (orange-yellow). The MIC is the lowest concentration to show no colour change.
# Habituation study: In the primary passage experiment, 1.9 ml volumes of antibiotic solutions at concentrations covering the MIC of the M. hyopneumoniae strain under test, are inoculated with 0.1 ml of broth culture containing between 10^3 ccu/ml to 10^5 ccu/ml. A growth control consisting of drug-free broth inoculated with M. hyopneumoniae and an uninoculated medium control are included in each passage experiment. After 7 days incubation (36° C.) the two highest concentrations of drug-containing broth showing an acid colour change are pooled and used to inoculate a fresh series of drug dilutions in mycoplasma broth (0.1 ml culture into 1.9 ml drug-containing broth). This process is repeated every 5-7 days for up to 10 passages. When the mycoplasma strains become resistant to particular antibiotics, or at the 10th passage, each strain is grown once more in drug-containing broth and the MICs determined.
# M. hyopneumoniae [3] = assay: Prevention of experimentally-induced enzootic pneumonia in vivo (Trials 1-3); parameters: species or system pigs
# Protocol: An experimental model of enzootic pneumonia, using passaged lung material originally derived by infection of gnotobiotic pigs with M. hyopneumoniae,was employed to assess the potential of valnemulin for prevention of the disease. Three trials were performed: Trials 1 and 2 were dose titration studies of the novel compound using a standard challenge strain of M. hyopneumoniae and in Trial 3, the efficacy of the compound at 200 ppm in feed against a second challenge strain was assessed. Large white Landrace male pigs, 6-7 weeks of age, from stock free of infection with M. hyopneumoniae are used. The challenge materials are pneumonic lungs containing M. hyopneumoniae given as a homogenate intranasally on three successive days. […] The challenge material was originally derived by infection of gnotobiotic pigs with M. hyopneumoniae and subsequent passage in SPF (Specific Pathogen-free) pigs and had been stored below -70° C.
# Trial 1: Medication with valnemulin hydrochloride by stomach tube (gavage) once a day at 0 (control), 2.5, 5, 7.5 or 10 mg/kg body weight per day. Six pigs per group.
# Trial 2: Medication with valnemulin hydrochloride in feed at 0, 100, 200, 300 or 400 ppm (equivalent to 0, 5, 10, 15 and 20 mg/kg/day). Six pigs per group.
# Trial 3: Medication with valnemulin hydrochloride in feed at 0 or 200 ppm (equivalent to 0 and 10 mg/kg/day). Eight pigs per group. Medication was given from the first day of challenge infection until post-mortem examination performed approximately 3 weeks after challenge infection. Disease was assessed by quantifying lung lesions [Cambridge lung lesion scoring system (Goodwin, R. F. W. and Whittlestone, P., J. Hyg. 69 [1971] 391-397), in which the score is an approximation of percent of lung affected with pneumonia], by estimation of lung-bodyweight ratio and by isolation of M. hyopneumoniae from lungs.
# [4] = Trial 2, feed, 100 ppm (5 mg/kg)
# [5] = Trial 2, feed, 200 ppm (10 mg/kg)
# [6] = Trial 2, feed, 300 ppm (15 mg/kg)
# [7] = Trial 2, feed, 400 ppm (20 mg/kg)
# [8] = Trial 3, feed, 200 ppm (10 mg/kg)
smiles,measurement,setting,value
"C=C[C@]1(C)C[C@@H](OC(=O)CSC(C)(C)CNC(=O)[C@H](N)C(C)C)[C@]2(C)[C@H](C)CC[C@]3(CCC(=O)[C@H]32)[C@@H](C)[C@@H]1O [valnemulin hydrochloride, 14-O-[1-[(R)-2-amino-3-methylbutyrylamino]-2-methylpropan-2-ylthioacetyl]mutilin]",MIC,M. hyopneumoniae [1]; strain from material used in Trial 3,7.8 ng/mL
same,MIC,M. hyopneumoniae [1]; strain in material used in Trials 1 & 2,16 ng/mL
same,resistance development in words,"M. hyopneumoniae [2]; M. hyopneumoniae strains, in vitro passages",resistance development was minimal; also recorded: does not induce significant resistance to itself
same,MIC,"M. hyopneumoniae [2]; Mesomycoplasma hyopneumoniae, NCTC10110, read-out: Post-passage MIC up to P10/P11",5 ng/mL
same,Resistance increase,M. hyopneumoniae [2]; NCTC 10110,2 fold
same,activity greater than those of tylosin and oxytetracycline,"M. hyopneumoniae [2]; before exposure, both strains",50-100 told
same,Resistance increase,M. hyopneumoniae [2]; field isolate,2.5 fold
same,pigs from which M. hyopneumoniae was reisolated,"M. hyopneumoniae [3]; Trial 1, 2.5 mg/kg",4 pigs
same,reduction of lesions,"M. hyopneumoniae [3]; Trial 1, 7.5 mg/kg",71%
same,pigs from which M. hyopneumoniae was reisolated,"M. hyopneumoniae [3]; Trial 1, 10 mg/kg",1 pigs
same,reduction of lesions,"M. hyopneumoniae [3]; Trial 1, 10 mg/kg",87%
same,effect on lesions in words,"M. hyopneumoniae [3]; Trial 1, 2.5 and 5 mg/kg/day",somewhat less effective at reducing lesions
same,Lung lesion score,"M. hyopneumoniae [3]; Trial 1, gavage, 2.5 mg/kg/day",7.7
same,Lung-bodyweight ratio,"M. hyopneumoniae [3]; Trial 1, gavage, 2.5 mg/kg/day",1.21%
same,Lung lesion score,"M. hyopneumoniae [3]; Trial 1, gavage, 5 mg/kg/day",11.1
same,Lung-bodyweight ratio,"M. hyopneumoniae [3]; Trial 1, gavage, 5 mg/kg/day",1.31%
same,Lung lesion score,"M. hyopneumoniae [3]; Trial 1, gavage, 7.5 mg/kg/day",3.8
same,Lung-bodyweight ratio,"M. hyopneumoniae [3]; Trial 1, gavage, 7.5 mg/kg/day",1.21%
same,Lung lesion score,"M. hyopneumoniae [3]; Trial 1, gavage, 10 mg/kg/day",1.7
same,Lung-bodyweight ratio,"M. hyopneumoniae [3]; Trial 1, gavage, 10 mg/kg/day",1.08%
same,pigs from which M. hyopneumoniae was reisolated,"M. hyopneumoniae [3]; Trial 2, 100 ppm",4 pigs
same,reduction in lesions,"M. hyopneumoniae [3]; Trial 2, 100 ppm",No reduction in lesions
same,pigs from which M. hyopneumoniae was reisolated,"M. hyopneumoniae [3]; Trial 2, 200 ppm",3 pigs
same,reduction of lesions,"M. hyopneumoniae [3]; Trial 2, 200 ppm",46%
same,reduction of lesions,"M. hyopneumoniae [3]; Trial 2, 300 ppm",43%
same,reisolation of M. hyopneumoniae,"M. hyopneumoniae [3]; Trial 2, 300 ppm",not reisolated
same,reduction of lesions,"M. hyopneumoniae [3]; Trial 2, 400 ppm",71%
same,reisolation of M. hyopneumoniae,"M. hyopneumoniae [3]; Trial 2, 400 ppm",not reisolated
same,Lung lesion score,M. hyopneumoniae [3]; [4],25
same,Lung-bodyweight ratio,M. hyopneumoniae [3]; [4],1.53%
same,Lung lesion score,M. hyopneumoniae [3]; [5],12
same,Lung-bodyweight ratio,M. hyopneumoniae [3]; [5],1.29%
same,Lung lesion score,M. hyopneumoniae [3]; [6],12.7
same,Lung-bodyweight ratio,M. hyopneumoniae [3]; [6],1.27%
same,Lung lesion score,M. hyopneumoniae [3]; [7],6.3
same,Lung-bodyweight ratio,M. hyopneumoniae [3]; [7],1.24%
same,reduction of lung weights,"M. hyopneumoniae [3]; Trial 2, levels down to 200 ppm",significant reductions at levels down to 200 ppm
same,"levels of M. hyopneumoniae at post-mortem, medicated vs unmedicated","M. hyopneumoniae [3]; Trial 3, 200 ppm",no difference in the levels of M. hyopneumoniae
same,reduction of lesion scores,"M. hyopneumoniae [3]; Trial 3, 200 ppm in feed",79%
same,Lung lesion score,M. hyopneumoniae [3]; [8],2.3
same,Lung-bodyweight ratio,M. hyopneumoniae [3]; [8],1.21%
same,prevention of experimentally-induced enzootic pneumonia,"M. hyopneumoniae [3]; separate experiments, two challenge strains",effective for the prevention of experimentally-induced enzootic pneumonia
